This passage reports Kd results from paper PMC11915803, “Class B scavenger receptor resists WSSV replication by recognizing the viral lipid molecule and promoting phagocytosis” (Journal of Virology, 2025).

The target in this experiment is T1, PcSRB (rPcSRB).
T1 construct: recombinant, pET-32a(+) BamHI/XhoI, His-tagged, tag kept
Briefly: microscale thermophoresis, RED-tris-NTA labelled protein. The class given is binding, Procambarus clarkii. The following applies: PBS-T; His-tagged protein labelled, ligand unlabelled. (In general: In MST a laser heats a spot of the sample, and binding alters the fluorescence response.)

Molecules are shown by their SMILES. pKd: −log10 of the molar value.

`CC(C)CCC[C@@H](C)[C@H]1CC[C@H]2[C@@H]3CC=C4C=CCC[C@]4(C)[C@H]3CC[C@]12C` [CD3,5, cholesta-3,5-diene]: the pKd was 5.35.

By pKd is commonly meant the negative decadic logarithm of the Kd, by convention in mol/L.
